Measurements reported in ChEMBL document CHEMBL1143512, “Antitubercular agents. Part 2: new thiolactomycin analogues active against Mycobacterium tuberculosis” (2005).
Values after ≈ are worked out from the molar mass of the structure shown.

Legend:
Type in all cases: functional
[1] = tested on: Mycobacterium tuberculosis; assay: Minimum inhibitory concentration against Mycobacterium tuberculosis resistant clinical isolates
[2] = tested on: Mycobacterium tuberculosis; assay: Minimum inhibitory concentration against Mycobacterium tuberculosis resistant clinical isolates; Range: 1-4 ug/ml
[3] = tested on: Mycobacterium tuberculosis; assay: Minimum inhibitory concentration against Mycobacterium tuberculosis resistant clinical isolates; Range:4-16 ug/ml
[4] = tested on: Mycobacterium tuberculosis; assay: Minimum inhibitory concentration against Mycobacterium tuberculosis resistant clinical isolates; Range: 8->16 ug/ml

SMILES | MIC [1] [µg/mL] | other results
CC1=C(OCCCCN2CCOCC2)C(C)SC1=O (stereo not given) | > 16 | –
CC1=C(OCCCCCN2CCOCC2)C(C)SC1=O (stereo not given) | > 16 | –
COC(=O)CSCCCOC1=C(C)C(=O)SC1C (stereo not given) | > 16 | –
COC(=O)CSCCCCCOC1=C(C)C(=O)SC1C (stereo not given) | > 16 | –
CC1=C(OCCCCCCCCBr)C(C)SC1=O (stereo not given) | > 16 | –
CC1=C(OCCCCCCBr)C(C)SC1=O (stereo not given) | > 16 | –
CC1=C(OCCCCCCCCN2CCOCC2)C(C)SC1=O (stereo not given) | > 16 | –
CC1=C(OCCCCCCCCCCN2CCN(C)CC2)C(C)SC1=O (stereo not given) | > 16 | –
CC1=C(OCCCCN2CCN(C)CC2)C(C)SC1=O (stereo not given) | > 16 | –
CC1=C(OCCCBr)C(C)SC1=O (stereo not given) | > 16 | –
COC(=O)CSCCCCCCCCOC1=C(C)C(=O)SC1C (stereo not given) | – | MIC [2]: 4 µg/mL (≈ 11.1 µM)
CC1=C(OCCCN2CCN(C)CC2)C(C)SC1=O (stereo not given) | > 16 | –
CC1=C(OCCCCCBr)C(C)SC1=O (stereo not given) | > 16 | –
COC(=O)CSCCCCOC1=C(C)C(=O)SC1C (stereo not given) | > 16 | –
COC(=O)CSCCCCCCOC1=C(C)C(=O)SC1C (stereo not given) | > 16 | –
CC1=C(OCCCCCN2CCN(C)CC2)C(C)SC1=O (stereo not given) | > 16 | –
CC1=C(OCCCCBr)C(C)SC1=O (stereo not given) | > 16 | –
CC1=C(OCCCCCCCCN2CCN(C)CC2)C(C)SC1=O (stereo not given) | > 16 | –
CC1=C(OCCCCCCCCCCBr)C(C)SC1=O (stereo not given) | – | MIC [3]: 16 µg/mL (≈ 44 µM)
CC1=C(OCCCCCCN2CCN(C)CC2)C(C)SC1=O (stereo not given) | > 16 | –
CC1=C(OCCCCCCN2CCOCC2)C(C)SC1=O (stereo not given) | > 16 | –
CC1=C(OCCCCCCCCCCN2CCOCC2)C(C)SC1=O (stereo not given) | > 16 | –
COC(=O)CSCCCCCCCCCCOC1=C(C)C(=O)SC1C (stereo not given) | > 16 | –
CC1=C(OCCCN2CCOCC2)C(C)SC1=O (stereo not given) | > 16 | –
NNC(=O)c1ccncc1 [ISONIAZID] | – | MIC [4]: > 16 µg/mL
